{"source": "patent US9113629B2", "about": "“4-amino-6-(4-substituted-phenyl)-picolinates and 6-amino-2-(4-substituted-phenyl)-pyrimidine-4-carboxylates and their use as herbicides” (DOW AGROSCIENCES LLC, priority 2013, dated 2015)", "key": {"[1]": {"system": "Key Grass and Sedge Weeds as well as Grass Crops", "assay": "Post-emergent Test II herbicidal activity (Table 6)", "format": "in vivo", "conditions": "post-emergence, 336 h; for pest or weed control at 70 g/ha: application rate 70 g ai/ha; for pest or weed control at 140 g/ha: application rate 140 g ai/ha", "outline": "(§1)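 Scoring: visual, 0–100% injury at 14 d versus untreated. Treatment: overhead track spray, 187 L/ha, onto plants at the first–second true leaf stage. Growth: greenhouse, ~15 h light, 23–29 °C day, 22–28 °C night.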"}, "[2]": {"system": "Key Broadleaf Weed and Crop Species", "assay": "Post-emergent Test II herbicidal activity (Table 5)", "format": "in vivo", "conditions": "post-emergence, 336 h, post-emergent, 14 days after application; for pest or weed control at 70 g/ha: 70 g ai/ha; for pest or weed control at 140 g/ha: 140 g ai/ha", "outline": "as §1"}, "[3]": {"conditions": "Triticum aestivum, TRZSS (wheat), read-out: Visual Growth Reduction (%) 14 Days After Application, TRZSS"}, "[4]": {"conditions": "CYPES: yellow nutsedge (Cyperus esculentus), read-out: Visual Growth Reduction (%) 14 Days After Application, CYPES"}, "[5]": {"conditions": "DIGSA: crabgrass (Digitaria sanguinalis), read-out: Visual Growth Reduction (%) 14 Days After Application, DIGSA"}, "[6]": {"conditions": "ECHCG: barnyardgrass (Echinochloa crus-galli), read-out: Visual Growth Reduction (%) 14 Days After Application, ECHCG"}, "[7]": {"conditions": "ORYSA: rice (Oryza sativa), read-out: Visual Growth Reduction (%) 14 Days After Application, ORYSA"}, "[8]": {"conditions": "SETFA: giant foxtail (Setaria faberi), read-out: Visual Growth Reduction (%) 14 Days After Application, SETFA"}, "[9]": {"conditions": "SORVU: grain sorghum (Sorghum vulgare), read-out: Visual Growth Reduction (%) 14 Days After Application, SORVU"}, "[10]": {"conditions": "ZEAMX: maize, corn (Zea mays), read-out: Visual Growth Reduction (%) 14 Days After Application, ZEAMX"}, "[11]": {"conditions": "ABUTH: velvetleaf (Abutilon theophrasti), read-out: Visual Growth Reduction (%) 14 Days After Application ABUTH"}, "[12]": {"conditions": "AMARE: redroot pigweed (Amaranthus retroflexus), read-out: Visual Growth Reduction (%) 14 Days After Application AMARE"}, "[13]": {"conditions": "BRSNN: oilseed-rape, canola (Brassica napus), read-out: Visual Growth Reduction (%) 14 Days After Application BRSNN"}, "[14]": {"conditions": "CHEAL: lambsquarters (Chenopodium album), read-out: Visual Growth Reduction (%) 14 Days After Application CHEAL"}, "[15]": {"conditions": "EPHHL: wild poinsettia (Euphorbia heterophylla), read-out: Visual Growth Reduction (%) 14 Days After Application EPHHL"}, "[16]": {"conditions": "HELAN: sunflower (Helianthus annuus), read-out: Visual Growth Reduction (%) 14 Days After Application HELAN"}, "[17]": {"conditions": "VIOTR: wild pansy (Viola tricolor), read-out: Visual Growth Reduction (%) 14 Days After Application VIOTR"}}, "note": "Read-outs that look alike come from different tables or passages of the source.", "data": [{"smiles": "COC(=O)c1nc(-c2ccc(C#N)cc2)c(C)c(N)c1Cl", "note": "[Compound 83, Methyl 4-amino-3-chloro-6-(4-cyanophenyl)-5-methylpicolinate]", "values": [{"measurement": "pest or weed control at 70 g/ha", "setting": "[1]; [3]", "result": "0 to 29", "unit": "%"}, {"measurement": "pest or weed control at 140 g/ha", "setting": "[1]; [3]", "result": "0 to 29", "unit": "%"}, {"measurement": "pest or weed control at 70 g/ha", "setting": "[1]; [4]", "result": "0 to 29", "unit": "%"}, {"measurement": "pest or weed control at 140 g/ha", "setting": "[1]; [4]", "result": "0 to 29", "unit": "%"}, {"measurement": "pest or weed control at 70 g/ha", "setting": "[1]; [5]", "result": "0 to 29", "unit": "%"}, {"measurement": "pest or weed control at 140 g/ha", "setting": "[1]; [5]", "result": "0 to 29", "unit": "%"}, {"measurement": "pest or weed control at 70 g/ha", "setting": "[1]; [6]", "result": "0 to 29", "unit": "%"}, {"measurement": "pest or weed control at 140 g/ha", "setting": "[1]; [6]", "result": "0 to 29", "unit": "%"}, {"measurement": "pest or weed control at 70 g/ha", "setting": "[1]; [7]", "result": "0 to 29", "unit": "%"}, {"measurement": "pest or weed control at 140 g/ha", "setting": "[1]; [7]", "result": "0 to 29", "unit": "%"}, {"measurement": "pest or weed control at 70 g/ha", "setting": "[1]; [8]", "result": "0 to 29", "unit": "%"}, {"measurement": "pest or weed control at 140 g/ha", "setting": "[1]; [8]", "result": "0 to 29", "unit": "%"}, {"measurement": "pest or weed control at 70 g/ha", "setting": "[1]; [9]", "result": "0 to 29", "unit": "%"}, {"measurement": "pest or weed control at 140 g/ha", "setting": "[1]; [9]", "result": "0 to 29", "unit": "%"}, {"measurement": "pest or weed control at 70 g/ha", "setting": "[1]; [10]", "result": "0 to 29", "unit": "%"}, {"measurement": "pest or weed control at 140 g/ha", "setting": "[1]; [10]", "result": "0 to 29", "unit": "%"}, {"measurement": "pest or weed control at 70 g/ha", "setting": "[2]; [11]", "result": "0 to 29", "unit": "%"}, {"measurement": "pest or weed control at 140 g/ha", "setting": "[2]; [11]", "result": "30 to 44", "unit": "%"}, {"measurement": "pest or weed control at 70 g/ha", "setting": "[2]; [12]", "result": "0 to 29", "unit": "%"}, {"measurement": "pest or weed control at 140 g/ha", "setting": "[2]; [12]", "result": "0 to 29", "unit": "%"}, {"measurement": "pest or weed control at 70 g/ha", "setting": "[2]; [13]", "result": "0 to 29", "unit": "%"}, {"measurement": "pest or weed control at 140 g/ha", "setting": "[2]; [13]", "result": "0 to 29", "unit": "%"}, {"measurement": "pest or weed control at 70 g/ha", "setting": "[2]; [14]", "result": "0 to 29", "unit": "%"}, {"measurement": "pest or weed control at 140 g/ha", "setting": "[2]; [14]", "result": "0 to 29", "unit": "%"}, {"measurement": "pest or weed control at 70 g/ha", "setting": "[2]; [15]", "result": "0 to 29", "unit": "%"}, {"measurement": "pest or weed control at 140 g/ha", "setting": "[2]; [15]", "result": "0 to 29", "unit": "%"}, {"measurement": "pest or weed control at 70 g/ha", "setting": "[2]; [16]", "result": "85 to 94", "unit": "%"}, {"measurement": "pest or weed control at 140 g/ha", "setting": "[2]; [16]", "result": "85 to 94", "unit": "%"}, {"measurement": "pest or weed control at 70 g/ha", "setting": "[2]; [17]", "result": "0 to 29", "unit": "%"}, {"measurement": "pest or weed control at 140 g/ha", "setting": "[2]; [17]", "result": "0 to 29", "unit": "%"}]}]}
